Data: patent US9668948B2, “Products and methods for reducing malodor from the pudendum” (priority 2009, dated 2017)

What was measured:
[1] = 1 gram in ... ml of water; 25° C.; cited from earlier work
Clostridium sporogenes = assay: Suppression of trimethylamine (TMA) formation from choline by bacterial culture, headspace GC/FID; assay type: cell-based; conditions: added to the culture solution (internal standard mix)
Description: A viable method was developed for the assay of trimethylamine (TMA). The method utilizes triethylamine and methanol together as internal standards and choline as the substrate for generating TMA from the bacterial species. The bacterial culture for these studies was Clostridium sporogenes, which was grown in house at BioScreen.
Tests were conducted with a headspace gas chromatograph to verify that Clostridium sporogenes bacterial could actively generating trimethylamine from a choline substrate.
Equipment for the testing included a Trace GC Ultra gas chormoatograph and a Varian CP-Volamine column. An FID detector was used with 2.5 mL/min helium flow.
The bacterial species C. sporogenes, a species found in the lower GI tract. was inoculated into 100 mL of Fluid Thioglycolate medium and incubated at 35±2° C. for a minimum of 16 hours. At the end of incubation, the concentration of the bacterial suspension was confirmed by serial dilution in 9 mL PBS up to 10^−7 and anaerobic incubation at 32.5±2.5° C. for a minimum of 48 hours. Counts were recorded from dilution plates with 25 to 250 colonies. The average counts were multiplied by the reciprocal of the dilution factor to furnish the CFU/mL of the bacterial species. […]

O=C(O)C(O)c1ccccc1 (centres unmarked) [mandelic acid]
solubility in water: ml of water for 1 gram [1]: 6.3 mL

benzalkonium chloride
effect on reactivity of the bacterial culture with choline (Clostridium sporogenes): stops further reactivity
